Test results: patent US12404269B2, “Aminoquinazolinone and aminoisoquinolinone derivatives and application thereof” (ZHEJIANG UNIVERSITY, priority 2018, dated 2025)
Like-named read-outs stand apart in the source and are kept apart here.

Tests used:
[1] = Pharmacokinetic determination in SD rats, tail vein injection; format: in vivo; settings: rat, plasma; male SD rats, intravenous, 1 mg/kg
Method: Healthy SD rats weighing 200±20 g, male, were randomly divided into groups with 6 rats in each group, and were administered by tail vein injection at a dose of 1 mg/kg. The blood sampling time points for pharmacokinetic analysis: 5 min, 15 min, 30 min, 2 h, 4 h, 6 h, 8 h, 24 h, and 48 h after administration. About 0.3 mL of whole blood was collected via the orbit and placed in a heparinized test tube, centrifugalized at 6000 rpm for 10 min to separate the plasma, and store at −80° C. for testing. The plasma concentrations of the each compounds were detected with an Agilent liquid mass spectrometry (LC-MS/MS, Agilent Jet Stream Electrometric spray ion), and the relevant pharmacokinetic parameters were calculated using the WinNonLin 7.0 pharmacokinetic software non-compartment model method.

PI3Kα = biological target: T1, PI3Kα (Homo sapiens, UniProt P42336); experiment: PI3Kα molecular activity test (ADP-GLO); format: biochemical; settings: for Selectivity (PI3Kδ IC50/PI3KαIC50): PI3Kδ IC50/PI3Kα IC50; for IC50: recombinant protein, 100 μM ATP, 2 hours at room temperature
T1 construct: purchased Carna Bioscience
T1 sequence (P42336 whole entry): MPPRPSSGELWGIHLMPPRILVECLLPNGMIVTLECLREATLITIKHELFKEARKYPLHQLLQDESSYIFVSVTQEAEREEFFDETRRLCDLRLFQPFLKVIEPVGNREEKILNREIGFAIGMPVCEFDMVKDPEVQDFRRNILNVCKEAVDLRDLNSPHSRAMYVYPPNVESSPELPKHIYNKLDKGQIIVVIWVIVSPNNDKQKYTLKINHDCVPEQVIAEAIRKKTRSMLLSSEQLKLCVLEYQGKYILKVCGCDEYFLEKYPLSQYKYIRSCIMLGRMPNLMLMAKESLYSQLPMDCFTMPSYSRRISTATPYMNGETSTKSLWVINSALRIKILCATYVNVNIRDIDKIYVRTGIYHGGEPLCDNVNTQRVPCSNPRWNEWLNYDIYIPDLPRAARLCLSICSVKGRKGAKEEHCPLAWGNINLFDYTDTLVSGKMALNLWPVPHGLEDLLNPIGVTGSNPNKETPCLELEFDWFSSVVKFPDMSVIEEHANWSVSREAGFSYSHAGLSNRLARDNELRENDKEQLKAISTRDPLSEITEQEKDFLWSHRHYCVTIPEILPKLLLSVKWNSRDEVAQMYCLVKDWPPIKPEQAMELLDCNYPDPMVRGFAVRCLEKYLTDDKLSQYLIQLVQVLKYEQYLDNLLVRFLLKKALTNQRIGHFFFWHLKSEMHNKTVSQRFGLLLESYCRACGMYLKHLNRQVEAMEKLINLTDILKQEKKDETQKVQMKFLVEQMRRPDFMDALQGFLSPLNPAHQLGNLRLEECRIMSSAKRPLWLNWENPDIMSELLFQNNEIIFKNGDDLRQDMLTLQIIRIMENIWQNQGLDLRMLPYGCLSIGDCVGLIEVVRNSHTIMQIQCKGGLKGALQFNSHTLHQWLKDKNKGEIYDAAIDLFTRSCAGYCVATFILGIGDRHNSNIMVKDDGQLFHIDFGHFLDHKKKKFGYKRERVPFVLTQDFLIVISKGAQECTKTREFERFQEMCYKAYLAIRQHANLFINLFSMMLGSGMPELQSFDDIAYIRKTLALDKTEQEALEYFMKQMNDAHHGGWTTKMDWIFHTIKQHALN
T1 sequence (P27986 whole entry partner): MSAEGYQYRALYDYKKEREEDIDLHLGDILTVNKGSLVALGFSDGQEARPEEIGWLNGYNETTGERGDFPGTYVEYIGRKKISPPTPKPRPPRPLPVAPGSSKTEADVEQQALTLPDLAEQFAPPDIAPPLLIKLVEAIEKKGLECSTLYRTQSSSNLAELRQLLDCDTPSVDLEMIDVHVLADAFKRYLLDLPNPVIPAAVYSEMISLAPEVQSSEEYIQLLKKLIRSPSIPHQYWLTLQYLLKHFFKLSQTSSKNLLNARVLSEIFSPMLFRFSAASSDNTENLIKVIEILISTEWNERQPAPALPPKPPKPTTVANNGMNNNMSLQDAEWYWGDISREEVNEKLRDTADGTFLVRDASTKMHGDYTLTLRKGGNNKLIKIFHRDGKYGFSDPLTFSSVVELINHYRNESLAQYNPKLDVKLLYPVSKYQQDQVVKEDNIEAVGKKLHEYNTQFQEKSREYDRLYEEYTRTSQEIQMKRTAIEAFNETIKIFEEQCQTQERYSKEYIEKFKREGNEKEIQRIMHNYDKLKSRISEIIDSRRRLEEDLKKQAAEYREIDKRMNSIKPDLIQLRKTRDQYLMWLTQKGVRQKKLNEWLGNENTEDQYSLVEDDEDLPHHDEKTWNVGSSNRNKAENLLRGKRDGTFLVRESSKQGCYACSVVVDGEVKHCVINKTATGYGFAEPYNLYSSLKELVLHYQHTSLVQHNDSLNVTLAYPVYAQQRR

KPL4 (PIK3CA mut) = experiment: Tumor cell proliferation, CCK8 method, KPL4; format: cell-based
Method: (§1) The IC50 value was calculated using Graphpad Prism V5.0 software.

MCF7 (PIK3CA mut) = experiment: Tumor cell proliferation, CCK8 method, MCF7; format: cell-based, human; settings: Homo sapiens
Method: as §1

PI3Kδ = biological target: T2, PI3Kδ (Homo sapiens, UniProt O00329); experiment: PI3Kδ molecular activity test (ADP-GLO); format: biochemical; settings: recombinant protein
T2 construct: purchased Carna Bioscience
T2 sequence (O00329 whole entry): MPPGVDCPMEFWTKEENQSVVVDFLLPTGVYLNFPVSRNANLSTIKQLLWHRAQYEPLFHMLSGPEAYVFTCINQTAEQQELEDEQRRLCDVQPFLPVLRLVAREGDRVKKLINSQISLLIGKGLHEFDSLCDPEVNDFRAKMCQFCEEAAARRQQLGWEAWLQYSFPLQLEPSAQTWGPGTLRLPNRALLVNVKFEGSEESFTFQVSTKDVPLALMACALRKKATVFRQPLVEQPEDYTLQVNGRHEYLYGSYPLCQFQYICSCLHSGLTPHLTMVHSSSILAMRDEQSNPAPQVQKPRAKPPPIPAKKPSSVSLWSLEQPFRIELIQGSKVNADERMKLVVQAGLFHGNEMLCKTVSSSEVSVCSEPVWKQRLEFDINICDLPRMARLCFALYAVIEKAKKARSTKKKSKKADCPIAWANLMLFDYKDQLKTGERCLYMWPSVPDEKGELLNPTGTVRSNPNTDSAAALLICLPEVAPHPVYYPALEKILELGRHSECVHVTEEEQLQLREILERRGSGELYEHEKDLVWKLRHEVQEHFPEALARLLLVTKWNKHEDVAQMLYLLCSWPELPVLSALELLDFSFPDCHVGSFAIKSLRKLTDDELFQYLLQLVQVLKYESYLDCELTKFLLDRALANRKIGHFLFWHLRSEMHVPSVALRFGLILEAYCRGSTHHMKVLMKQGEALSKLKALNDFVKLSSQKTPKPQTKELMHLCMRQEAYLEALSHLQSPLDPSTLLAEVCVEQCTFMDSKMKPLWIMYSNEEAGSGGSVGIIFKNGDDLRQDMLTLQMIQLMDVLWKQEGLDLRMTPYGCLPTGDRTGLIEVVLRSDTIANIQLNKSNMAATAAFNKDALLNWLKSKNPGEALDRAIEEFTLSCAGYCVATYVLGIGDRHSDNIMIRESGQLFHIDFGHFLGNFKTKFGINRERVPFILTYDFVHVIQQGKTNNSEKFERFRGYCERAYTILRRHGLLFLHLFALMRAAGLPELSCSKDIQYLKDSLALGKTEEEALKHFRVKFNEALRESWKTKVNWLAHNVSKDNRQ
T2 sequence (P27986 whole entry partner): as the sequence (P27986 whole entry partner) above

ZR-75-1 (PTEN loss) = experiment: Tumor cell proliferation, CCK8 method, ZR-75-1; format: cell-based; settings: Homo sapiens; CCK8, ZR-75-1
Method: as §1

SW48 (PIK3CA mut) = experiment: Tumor cell proliferation, CCK8 method, SW48; format: cell-based; settings: Homo sapiens
Method: as §1

Kasumi-1 cell line = experiment: In vivo efficacy, Kasumi-1 subcutaneous transplanted tumor in nude mice; settings: 10 mg/Kg qd for 21 days, Kasumi-1 tumor, female nude mice, FIG. 1
Method: Female nude mice, weighing 20±3 g, were inoculated subcutaneously with Kasumi-1 cell line in their right axilla. The cell inoculation accounted for 1×10^7/mouse. After tumor formation, the diameter of the transplanted tumor was measured with a vernier caliper. When the tumor grown to 100-300 mm^3, the animals were divided into a model control group and administration groups with 6 […] in each group depending on body weight and tumor volume. The model control group was given the same amount of blank solvent. After grouping, the drugs were administered daily (qd) with a doge of 10 mg/Kg for 21 consecutive days. During the experiment, the diameter of the transplanted tumor and the weight of the mice were measured twice a week. The calculation formula of the tumor volume (TV) was: TV=½×a×b^2, where a and b represented length and width respectively. The relative tumor volume (RTV) was calculated from the measurement results, the calculation formula was: RTV=Vt/V0, where V0 was the tumor volume measured as grouping and administering (i.e. d0), and Vt was the tumor volume at each measurement. The evaluation index of anti-tumor activity was the relative tumor proliferation rate T/C(%), and the calculation formula was as follows: T/C(%)=(TRTV/CRTV)×100%, where TRTV: RTV of the treatment group; and CRTV: RTV of the negative control group.

[2] = background; cited from earlier work
[3] = CLL patients, background; cited from earlier work
[4] = CCK8, KPL4, read-out: KPL4 (PIK3CA mut) proliferation IC50
[5] = CCK8, MCF7, read-out: MCF7 (PIK3CA mut) proliferation IC50
[6] = CCK8, SW48, read-out: SW48 (PIK3CA mut) proliferation IC50

SMILES | Vd [1] | clearance [1] | half-life [1] | Selectivity (PI3Kδ IC50/PI3KαIC50) (PI3Kα) | IC50 (PI3Kα) | IC50 (KPL4 (PIK3CA mut); [4]) | IC50 (MCF7 (PIK3CA mut); [5]) | IC50 (PI3Kδ) | IC50 (ZR-75-1 (PTEN loss)) | IC50 (SW48 (PIK3CA mut); [6]) | IC50 (KPL4 (PIK3CA mut); KPL4, read-out: KPL4 (PIK3CA mut) proliferation IC50) | IC50 (MCF7 (PIK3CA mut); MCF7, read-out: MCF7 (PIK3CA mut) proliferation IC50) | IC50 (SW48 (PIK3CA mut); SW48, read-out: SW48 (PIK3CA mut) proliferation IC50) | tumor growth inhibitory activity (Kasumi-1 cell line) | volume of distribution [2] | liver side effect [3]
COc1c(OCCCN2CCOCC2)ccc2c(=O)n(C)c(NC(=O)c3cnc(N)nc3)nc12 [8a-1] | 4.2 L/kg | 33.3 mL/min/kg | 318 min | II (“II” represents 5-10 times) | < 20 nM | < 20 nM | < 20 nM | < 20 nM | < 20 nM | < 20 nM |  |  |  |  |  | 
COc1c(OCCC(N)=O)ccc2c(=O)n(C)c(NC(=O)c3cnc(N)nc3)cc12 [8a′-3] | 2.9 L/kg | 41.7 mL/min/kg | 402 min | III (“III” represents >10 times) | < 20 nM |  |  | 20 to 200 nM |  |  |  |  |  |  |  | 
COc1c(OC[C@@H](O)CN2CCOCC2)ccc2c(=O)n(C)c(NC(=O)c3cnc(N)nc3)nc12 [8a-27, (S)-2-amino-N-(7-(2-hydroxy-3-morpholinopropoxy)-8-methoxy-3-methyl-4-oxo-3,4-dihydroquinazolin-2-yl) pyrimidine-5-carboxamide] |  |  |  | II (“II” represents 5-10 times) | < 20 nM | 20 to 200 nM | < 20 nM | 20 to 200 nM | 200 to 1000 nM | 20 to 200 nM |  |  |  | strong tumor growth inhibitory activity |  | 
COc1c(OCC(N)=O)ccc2c(=O)n(C)c(NC(=O)c3cnc(N)nc3)nc12 [8a-2] | 3.2 L/kg | 30 mL/min/kg | 294 min | III (“III” represents >10 times) | < 20 nM | < 20 nM | < 20 nM | < 20 nM | < 20 nM | < 20 nM |  |  |  |  |  | 
COc1c(OC[C@H](O)CN2CCOCC2)ccc2c(=O)n(C)c(NC(=O)c3cnc(N)nc3)nc12 [8a-28, (R)-2-amino-N-(7-(2-hydroxy-3-morpholinopropoxy)-8-methoxy-3-methyl-4-oxo-3,4-dihydroquinazolin-2-yl) pyrimidine-5-carboxamide] |  |  |  | II (“II” represents 5-10 times) | < 20 nM | 20 to 200 nM | < 20 nM | 20 to 200 nM | 200 to 1000 nM | 20 to 200 nM |  |  |  | strong tumor growth inhibitory activity |  | 
CC[C@H](Nc1ncnc2[nH]cnc12)c1nc2cccc(F)c2c(=O)n1-c1ccccc1 [Idelalisib] |  |  |  |  |  |  |  |  |  |  |  |  |  |  |  | elevated transaminase

More lines, main results first:

Vd [1] | clearance [1] | half-life [1] | Selectivity (PI3Kδ IC50/PI3KαIC50) (PI3Kα) | IC50 (PI3Kα) | IC50 (KPL4 (PIK3CA mut); [4]) | IC50 (MCF7 (PIK3CA mut); [5]) | IC50 (PI3Kδ) | IC50 (ZR-75-1 (PTEN loss)) | IC50 (SW48 (PIK3CA mut); [6]) | IC50 (KPL4 (PIK3CA mut); KPL4, read-out: KPL4 (PIK3CA mut) proliferation IC50) | IC50 (MCF7 (PIK3CA mut); MCF7, read-out: MCF7 (PIK3CA mut) proliferation IC50) | IC50 (SW48 (PIK3CA mut); SW48, read-out: SW48 (PIK3CA mut) proliferation IC50) | SMILES | tumor growth inhibitory activity (Kasumi-1 cell line) | volume of distribution [2] | liver side effect [3]
3.9 L/kg | 65 mL/min/kg | 252 min |  |  |  |  |  |  |  |  |  |  | CCn1c(NC(=O)c2cnc(N)nc2)cc2c3c(ccc2c1=O)OCO3 [14b′-1] |  |  | 
2.4 L/kg | 38.3 mL/min/kg | 282 min |  |  |  |  |  |  |  |  |  |  | CCn1c(NC(=O)c2cnc(N)nc2)nc2c3c(ccc2c1=O)OCCCO3 [14b-3] |  |  | 
3.9 L/kg | 26.7 mL/min/kg | 252 min | III (“III” represents >10 times) | < 20 nM |  |  | 20 to 200 nM |  |  |  |  |  | CCn1c(NC(=O)c2cnc(N)nc2)nc2c(OC)c(OCCCC(N)=O)ccc2c1=O [8b-9] |  |  | 
33.5 L/kg | 36.7 mL/min/kg | 534 min |  |  |  |  |  | < 20 nM |  | < 20 nM | < 20 nM | < 20 nM | COc1c(OCCCN2CCOCC2)ccc2c1N=C(NC(=O)c1cnc(N)nc1)N1CCN=C21 [Copanlisib, reference compound] |  | 32.6 L/kg | 
3.8 L/kg | 31.7 mL/min/kg | 312 min |  |  | < 20 nM | < 20 nM |  | < 20 nM | < 20 nM |  |  |  | CCn1c(NC(=O)c2cnc(N)nc2)nc2c(OC)c(OCCCN3CCOCC3)ccc2c1=O [8b-1] |  |  | 
